According to US9227971B2, “Pyrazolo[1,5-a]pyrimidine compounds as mTOR inhibitors” (Merck Sharp & Dohme Corp., priority 2010, dated 2016):
Like-named read-outs stand apart in the source and are kept apart here.

Tests used:
[1] = tested on: phosphorylated AKT Ser473 (pAKT S473), mTORC2 activity, PC3 cells; assay: mTOR target engagement assay, immunofluorescent cell-based, pAKT S473 readout (mTORC2 activity); details: Homo sapiens
Procedure, shortened: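 After blocking, cells were stained overnight at 4 °C with anti-pAKT S473 antibody, then a fluorescent secondary; inhibition was read as reduced fluorescence intensity.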

[2] = tested on: phosphorylated 4E-BP1 Thr37/46 (p4E-BP1 Thr37/46), mTORC1 activity, PC3 cells; assay: mTOR target engagement assay, immunofluorescent cell-based, p4E-BP1 Thr37/46 readout (mTORC1 activity); details: Homo sapiens, read-out: p4E-BP1 Thr37/46 IC50
Procedure, shortened: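 PTEN-mutant PC3 prostate cells were treated with serially diluted compound in 5% FBS F12 medium (0.25% DMSO) for ninety minutes at 37° C, glyoxal-fixed, then immunostained overnight at 4° C for p4E-BP1 Thr37/46 with an Alexa Fluor 488 secondary. IC50 came from four-parameter fits of fluorescence, DMSO-only wells defining 100%.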

[3] = PC-3, PC3 cells, compound treatment ninety minutes at 37° C.

SMILES | IC50 ([1]; PC-3, Table 3-1, PC3 cells) [nM] | IC50 ([2]; PC-3, Table 3-1, PC3 cells) [nM] | IC50 [1, 3] [nM] | IC50 [2, 3] [nM]
CS(=O)(=O)c1c([C@@H]2C[C@H]3CC[C@@H](C2)N3)nc2c(-c3ccc(-c4ccccc4)nc3)cnn2c1N [Compound 3.202, 5-((1R,3s,5S)-8-azabicyclo[3.2.1]octan-3-yl)-6-(methylsulfonyl)-3-(6-phenylpyridin-3-yl)pyrazolo[1,5-a]pyrimidin-7-amine] | 1000 to 10000 | 1000 to 10000 | – | –
CC(=O)NCC(=O)N1[C@@H]2CC[C@H]1C[C@H](c1nc3c(-c4ccc(-c5ccccc5)nc4)cnn3c(N)c1S(C)(=O)=O)C2 [Compound 3.203, N-(2-((1R,3s,5S)-3-(7-amino-6-(methylsulfonyl)-3-(6-phenylpyridin-3-yl)pyrazolo[1,5-a]pyrimidin-5-yl)-8-azabicyclo[3.2.1]octan-8-yl)-2-oxoethyl)acetamide] | 1 to 100 | 1 to 100 | – | –
CS(=O)(=O)c1c([C@@H]2C[C@H]3CC[C@@H](C2)N3C(=O)[C@H]2CCCN2)nc2c(-c3ccc(-c4ccccc4)nc3)cnn2c1N [Compound 3.205] | 100 to 1000 | 100 to 1000 | – | –
CS(=O)(=O)c1c([C@@H]2C[C@H]3CC[C@@H](C2)N3C(=O)[C@@H]2CCCN2)nc2c(-c3ccc(-c4ccccc4)nc3)cnn2c1N [Compound 3.206, ((1R,3R,5S)-3-(7-amino-6-(methylsulfonyl)-3-(6-phenylpyridin-3-yl)pyrazolo[1,5-a]pyrimidin-5-yl)-8-azabicyclo[3.2.1]octan-8-yl)((S)-pyrrolidin-2-yl)methanone] | 1000 to 10000 | 1000 to 10000 | – | –
Nc1c(C2CC2)c([C@@H]2C[C@H]3CC[C@@H](C2)N3C(=O)c2nnc[nH]2)nc2c(-c3ccc(-c4ccccc4)nc3)cnn12 [Compound 4.1, ((1R,3a,5S)-3-(7-amino-6-cyclopropyl-3-(6-phenylpyridin-3-yl)pyrazolo[1,5-a]pyrimidin-5-yl)-8-azabicyclo[3.2.1]octan-8-yl)(4H-1,2,4-triazol-3-yl)methanone] | – | – | 1 to 100 | 1 to 100
Cc1nnc(C(=O)N2[C@@H]3CC[C@H]2C[C@H](c2nc4c(-c5ccc(-c6ccccc6)nc5)cnn4c(N)c2C2CC2)C3)[nH]1 [Compound 4.2, ((1R,3a,5S)-3-(7-amino-6-cyclopropyl-3-(6-phenylpyridin-3-yl)pyrazolo[1,5-a]pyrimidin-5-yl)-8-azabicyclo[3.2.1]octan-8-yl)(5-methyl-4H-1,2,4-triazol-3-yl)methanone] | – | – | 1 to 100 | 1 to 100
Nc1c(C2CC2)c([C@@H]2C[C@H]3CC[C@@H](C2)N3S(=O)(=O)c2nnc[nH]2)nc2c(-c3ccc(-c4ccccc4)nc3)cnn12 [Compound 4.3, 5-((1R,3a,5S)-8-(4H-1,2,4-triazol-3-ylsulfonyl)-8-azabicyclo[3.2.1]octan-3-yl)-6-cyclopropyl-3-(6-phenylpyridin-3-yl)pyrazolo[1,5-a]pyrimidin-7-amine] | – | – | 1000 to 10000 | 1000 to 10000
CNC(=O)N1[C@@H]2CC[C@H]1C[C@H](c1nc3c(-c4ccc(-c5ccccc5)nc4)cnn3c(N)c1C1CC1)C2 [Compound 4.4, (1R,3a,5S)-3-(7-amino-6-cyclopropyl-3-(6-phenylpyridin-3-yl)pyrazolo[1,5-a]pyrimidin-5-yl)-N-methyl-8-azabicyclo[3.2.1]octane-8-carboxamide] | – | – | 1 to 100 | 100 to 1000
CCNC(=O)N1[C@@H]2CC[C@H]1C[C@H](c1nc3c(-c4ccc(-c5ccccc5)nc4)cnn3c(N)c1C1CC1)C2 [Compound 4.5, (1R,3s,5S)-3-(7-amino-6-cyclopropyl-3-(6-phenylpyridin-3-yl)pyrazolo[1,5-a]pyrimidin-5-yl)-N-ethyl-8-azabicyclo[3.2.1]octane-8-carboxamide] | – | – | 100 to 1000 | 100 to 1000
NC(=O)N1[C@@H]2CC[C@H]1C[C@H](c1nc3c(-c4ccc(-c5ccccc5)nc4)cnn3c(N)c1C1CC1)C2 [Compound 4.6, (1R,3s,5S)-3-(7-amino-6-cyclopropyl-3-(6-phenylpyridin-3-yl)pyrazolo[1,5a]pyrimidin-5-yl)-8-azabicyclo[3.2.1]octane-8-carboxamide] | – | – | 1 to 100 | 1 to 100
COCCNC(=O)N1[C@@H]2CC[C@H]1C[C@H](c1nc3c(-c4ccc(-c5ccccc5)nc4)cnn3c(N)c1C1CC1)C2 [Compound 4.7, (1R,3s,5S)-3-(7-amino-6-cyclopropyl-3-(6-phenylpyridin-3-yl)pyrazolo[1,5-a]pyrimidin-5-yl)-N-(2-methoxyethyl)-8-azabicyclo[3.2.1]octane-8-carboxamide] | – | – | 100 to 1000 | 100 to 1000
Nc1c(C2CC2)c([C@@H]2C[C@H]3CC[C@@H](C2)N3C(=O)NCCO)nc2c(-c3ccc(-c4ccccc4)nc3)cnn12 [Compound 4.8, (1R,3s,5S)-3-(7-amino-6-cyclopropyl-3-(6-phenylpyridin-3-yl)pyrazolo[1,5-a]pyrimidin-5-yl)-N-(2-hydroxyethyl)-8-azabicyclo[3.2.1]octane-8-carboxamide] | – | – | 1 to 100 | 100 to 1000
COc1ccc(-c2ccc(-c3cnn4c(N)c(C5CC5)c([C@@H]5C[C@H]6CC[C@@H](C5)N6C(=O)c5nnc[nH]5)nc34)cn2)cc1F [Compound 4.9, ((1R,3s,5S)-3-(7-amino-6-cyclopropyl-3-(6-(3-fluoro-4-methoxyphenyl)pyridin-3-yl)pyrazolo[1,5-a]pyrimidin-5-yl)-8-azabicyclo[3.2.1]octan-8-yl)(4H-1,2,4-triazol-3-yl)methanone] | – | – | 1 to 100 | 100 to 1000
COc1ccc(-c2ccc(-c3cnn4c(N)c(C5CC5)c([C@@H]5C[C@H]6CC[C@@H](C5)N6C(=O)c5nnc[nH]5)nc34)cn2)c(F)c1F [Compound 4.10, ((1R,3a,5S)-3-(7-amino-6-cyclopropyl-3-(6-(2,3-difluoro-4-methoxyphenyl)pyridin-3-yl)pyrazolo[1,5-a]pyrimidin-5-yl)-8-azabicyclo[3.2.1]octan-8-yl)(4H-1,2,4-triazol-3-yl)methanone] | – | – | 1 to 100 | 1 to 100
COc1cc(F)c(-c2ccc(-c3cnn4c(N)c(C5CC5)c([C@@H]5C[C@H]6CC[C@@H](C5)N6C(=O)c5nnc[nH]5)nc34)cn2)cc1F [Compound 4.12, ((1R,3a,5S)-3-(7-amino-6-cyclopropyl-3-(6-(2,5-difluoro-4-methoxyphenyl)pyridin-3-yl)pyrazolo[1,5-a]pyrimidin-5-yl)-8-azabicyclo[3.2.1]octan-8-yl)(4H-1,2,4-triazol-3-yl)methanone] | – | – | 1 to 100 | 1 to 100
CCOc1ccc(-c2ccc(-c3cnn4c(N)c(C5CC5)c([C@@H]5C[C@H]6CC[C@@H](C5)N6C(=O)c5nnc[nH]5)nc34)cn2)cc1 [Compound 4.13, ((1R,3s,5S)-3-(7-amino-6-cyclopropyl-3-(6-(4-ethoxyphenyl)pyridin-3-yl)pyrazolo[1,5-a]pyrimidin-5-yl)-8-azabicyclo[3.2.1]octan-8-yl)(4H-1,2,4-triazol-3-yl)methanone] | – | – | 100 to 1000 | 100 to 1000
COCCOc1ccc(-c2ccc(-c3cnn4c(N)c(C5CC5)c([C@@H]5C[C@H]6CC[C@@H](C5)N6C(=O)c5nnc[nH]5)nc34)cn2)cc1 [Compound 4.14, ((1R,3s,5S)-3-(7-amino-6-cyclopropyl-3-(6-(4-(2-methoxyethoxy)phenyl)pyridin-3-yl)pyrazolo[1,5-a]pyrimidin-5-yl)-8-azabicyclo[3.2.1]octan-8-yl)(4H-1,2,4-triazol-3-yl)methanone] | – | – | 100 to 1000 | 100 to 1000
Nc1c(C2CC2)c([C@@H]2C[C@H]3CC[C@@H](C2)N3C(=O)c2nnc[nH]2)nc2c(-c3ccc(-c4ccc(OC(F)F)cc4)nc3)cnn12 [Compound 4.15, ((1R,3s,5S)-3-(7-amino-6-cyclopropyl-3-(6-(4-(difluoromethoxy)phenyl)pyridin-3-yl)pyrazolo[1,5-a]pyrimidin-5-yl)-8-azabicyclo[3.2.1]octan-8-yl)(4H-1,2,4-triazol-3-yl)methanone] | – | – | 100 to 1000 | 100 to 1000
Cn1ccc(-c2ccc(-c3cnn4c(N)c(C5CC5)c([C@@H]5C[C@H]6CC[C@@H](C5)N6C(=O)c5nnc[nH]5)nc34)cn2)n1 [Compound 4.17, ((1R,3s,5S)-3-(7-amino-6-cyclopropyl-3-(6-(1-methyl-1H-pyrazol-3-yl)pyridin-3-yl)pyrazolo[1,5-a]pyrimidin-5-yl)-8-azabicyclo[3.2.1]octan-8-yl)(4H-1,2,4-triazol-3-yl)methanone] | – | – | 1 to 100 | 1 to 100
Cn1ccc(-c2ccc(-c3cnn4c(N)c(C5CC5)c([C@@H]5C[C@H]6CC[C@@H](C5)N6C(=O)CO)nc34)cn2)n1 [Compound 4.18, 1-((1R,3s,5S)-3-(7-amino-6-cyclopropyl-3-(6-(1-methyl-1H-pyrazol-3-yl)pyridin-3-yl)pyrazolo[1,5-a]pyrimidin-5-yl)-8-azabicyclo[3.2.1]octan-8-yl)-2-hydroxyethanone] | – | – | 1 to 100 | 1 to 100
Cc1[nH]nc(-c2ccc(-c3cnn4c(N)c(C5CC5)c([C@@H]5C[C@H]6CC[C@@H](C5)N6C(=O)c5nnc[nH]5)nc34)cn2)c1F [Compound 4.19, ((1R,3s,5S)-3-(7-amino-6-cyclopropyl-3-(6-(4-fluoro-5-methyl-1H-pyrazol-3-yl)pyridin-3-yl)pyrazolo[1,5-a]pyrimidin-5-yl)-8-azabicyclo[3.2.1]octan-8-yl)(4H-1,2,4-triazol-3-yl)methanone] | – | – | 100 to 1000 | 100 to 1000
